IC50 data for 27 compounds are collected here from patent publication US8097620B2, “Diazaquinolones that inhibit prolyl hydroxylase activity” (Amgen Inc., priority 2007, dated 2012).

Sequence of HIF PHD2 (Q9GZT9 whole entry): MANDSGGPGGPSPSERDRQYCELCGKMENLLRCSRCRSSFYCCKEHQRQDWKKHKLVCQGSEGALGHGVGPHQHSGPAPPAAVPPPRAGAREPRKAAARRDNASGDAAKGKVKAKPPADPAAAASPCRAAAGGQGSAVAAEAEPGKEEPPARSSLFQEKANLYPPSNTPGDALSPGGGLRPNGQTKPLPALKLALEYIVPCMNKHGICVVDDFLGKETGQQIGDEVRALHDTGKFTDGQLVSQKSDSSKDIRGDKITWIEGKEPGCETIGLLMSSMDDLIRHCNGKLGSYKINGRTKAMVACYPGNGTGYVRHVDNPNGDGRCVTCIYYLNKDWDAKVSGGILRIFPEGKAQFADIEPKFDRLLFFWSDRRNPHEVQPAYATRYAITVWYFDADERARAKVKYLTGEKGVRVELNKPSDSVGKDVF

In the test the target is HIF PHD2 (Homo sapiens, UniProt Q9GZT9). The test is described as follows: PHD2 inhibition assay (TR-FRET, VCB-Eu detection of hydroxylated P564-HIF1α peptide). It is filed as biochemical. The settings on record: 2 nM PHD2, 100 nM P564-HIF1α peptide, 0.25 μM 2-oxoglutarate, 100 μM FeCl2, 2 mM ascorbic acid, pH 6. As for the experimental part:
Inhibition of HIF PHD2 activity was quantified utilizing the TR-FRET technology. HIF PHD2 catalyzes a hydroxyl modification on the proline residue of the P564-HIF1α peptide substrate (Biotin-[…] (SEQ ID NO: 7)) resulting in recognition and binding of the europylated Von Hippel-Lindau protein (pVHL), elongin B and elongin C heterotrimeric (VCB-Eu) complex.
The PHD2 inhibition assay was executed by addition of freshly dissolved FeCl2 to 178.57 μM (100 μM final concentration) in PHD2 Reaction Buffer containing 30 mM MES, pH 6, 10 mM NaCl, 0.25% Brij-35, 0.01% BSA, and 1% DMSO. 28 μL of the iron solution and 2 μL of inhibitor compounds serially diluted in 100% DMSO (5% DMSO final) were added to black polypropylene 96-well microtiter plates. To that, 10 μL of 10 nM PHD2 (2 nM final) was added to all wells of the plate except for the 8 wells of column 12 (LO control), and allowed to incubate at room temperature on the shaker for one hour. Column 6 was the HI control containing PHD2 enzyme and 5% DMSO vehicle, but no inhibitor compound. To initiate the PHD2 enzymatic reaction, 10 μL of a solution containing 500 nM P564-HIF1α peptide (100 nM final), 10 mM ascorbic acid (2 mM final), and 1.25 μM 2-oxoglutarate (α-ketoglutarate; 0.25 μM final) in PHD2 Reaction Buffer was added to all wells of the plate and allowed to incubate on the shaker at room temperature for one hour.
The reaction was terminated by addition of 25 μL TR-FRET Buffer (50 mM TRIS-HCl, pH 9, 100 mM NaCl, 0.05% BSA, and 0.5% Tween-20) containing 150 mM succinate (product inhibitor; 50 mM final), 75 nM streptavidin-APC (25 nM final), and 7.5 nM VCB-Eu (2.5 nM final). The TR-FRET detection reagents were placed on a shaker for 1 hour to reach binding equilibrium before reading on the Discovery platform (PerkinElmer). Europium is excited at 315 nm and phosphoresces at 615 nm with a large Stoke's shift. APC, in turn, emits at 655 nm upon excitation at 615 nm. The TR-FRET signal is measured as the ratio of the APC 655 nm signal divided by the internal europium reference 615 nm emission signal.
The POC (percentage of control) was determined by comparing the signal from hydroxylated peptide substrate in the enzyme reaction containing inhibitor compound with that from PHD2 enzyme with DMSO vehicle alone (HI control), and no enzyme (LO control). POC was calculated using the formula: % control (POC)=(cpd−average LO)/(average HI−average LO)*100. Data (consisting of POC and inhibitor concentration in μM) was fitted to a 4-parameter equation (y=A+((B−A)/(1+((x/C)^D))), where A is the minimum y (POC) value, B is the maximum y (POC), C is the x (cpd concentration) at the point of inflection and D is the slope factor) using a Levenburg-Marquardt non-linear regression algorithm.
(In general: In TR-FRET formats the signal depends on donor and acceptor labels being close together.)
A word on the IC50: it is the midpoint of a concentration-inhibition curve. Lower therefore signals greater potency in that assay. Take `Cn1c(=O)c(C(=O)NCC(=O)O)c(O)c2cc(C3=CCCCC3)nnc21` [Example 6, 2-(3-cyclohexenyl-5-hydroxy-8-methyl-7-oxo-7,8-dihydropyrido[2,3-c]pyridazine-6-carboxamido)acetic acid]: the IC50 was 16 nM.

As to `Cn1c(=O)c(C(=O)NCC(=O)O)c(O)c2cc(-c3cccs3)nnc21` [Example 3, 2-(5-hydroxy-8-methyl-7-oxo-3-(thiophen-2-yl)-7,8-dihydropyrido[2,3-c]pyridazine-6-carboxamido)acetic acid], inhibition was half-maximal at 22 nM (IC50).

As to `Cn1c(=O)c(C(=O)NCC(=O)O)c(O)c2cnc(C3CC3)nc21` [Example 24, 2-(2-cyclopropyl-5-hydroxy-8-methyl-7-oxo-7,8-dihydropyrido[2,3-d]pyrimidine-6-carboxamido)acetic acid], the IC50 stood at 3.9 nM. This IC50 is about 5.6-fold lower than that of the compound before.

`CCC1CCC(C)N(c2ncc3c(O)c(C(=O)NCC(=O)O)c(=O)n(C)c3n2)C1` (stereo not drawn) [Example 20, 2-(2-(5-ethyl-2-methylpiperidin-1-yl)-5-hydroxy-8-methyl-7-oxo-7,8-dihydropyrido[2,3-d]pyrimidine-6-carboxamido)acetic acid] had an IC50 of 175 nM. This IC50 is about 45-fold higher than that of the compound before.

In turn, `CSc1ncc2c(O)c(C(=O)NCC(=O)O)c(=O)n(C)c2n1` [Example 10, 2-(5-hydroxy-8-methyl-2-(methylthio)-7-oxo-7,8-dihydropyrido[2,3-d]pyrimidine-6-carboxamido)acetic acid] registered a 50% inhibitory concentration (IC50) of 25 nM.

In turn, `Cn1c(=O)c(C(=O)NCC(=O)O)c(O)c2ncc(-c3ccccc3)nc21` [Example 18, 2-(8-hydroxy-5-methyl-6-oxo-3-phenyl-5,6-dihydropyrido[3,2-b]pyrazine-7-carboxamido)acetic acid] registered an IC50 of 8.8 nM. This IC50 lies about 2.8-fold lower than the previous one.

The compound `Cn1c(=O)c(C(=O)NCC(=O)O)c(O)c2cnc(-c3ccc(N4CCOCC4)cc3)nc21` [Example 29, 2-(5-hydroxy-8-methyl-2-(4-morpholinophenyl)-7-oxo-7,8-dihydropyrido[2,3-d]pyrimidine-6-carboxamido)acetic acid] displayed an IC50 of 3.7 nM. Against the preceding compound, the IC50 is about 2.4-fold lower.

In turn, `Cn1c(=O)c(C(=O)NCC(=O)O)c(O)c2cc(Cl)nnc21` [Example 1, 2-(3-chloro-5-hydroxy-8-methyl-7-oxo-7,8-dihydropyrido[2,3-c]pyridazine-6-carboxamido)acetic acid] gave an IC50 of 24 nM.

`Cn1c(=O)c(C(=O)NCC(=O)O)c(O)c2cnc(-c3cccnc3)nc21` [Example 55, 2-(5-hydroxy-8-methyl-7-oxo-2-(pyridin-3-yl)-7,8-dihydropyrido[2,3-d]pyrimidine-6-carboxamido)acetic acid] showed an IC50 of 4.45 nM.

`Cc1ccc(S(=O)(=O)n2cc(-c3ncc4c(O)c(C(=O)NCC(=O)O)c(=O)n(C)c4n3)c3ccccc32)cc1` [Example 58, 2-(5-hydroxy-8-methyl-7-oxo-2-(1-tosyl-1H-indol-3-yl)-7,8-dihydropyrido[2,3-d]pyrimidine-6-carboxamido)acetic acid] showed an IC50 of 42 nM.

The compound `Cn1c(=O)c(C(=O)NCC(=O)O)c(O)c2cc(C3=CCCC3)nnc21` [Example 4, 2-(3-cyclopentenyl-5-hydroxy-8-methyl-7-oxo-7,8-dihydropyrido[2,3-c]pyridazine-6-carboxamido)acetic acid] registered an IC50 of 17 nM. This IC50 is about 2.5-fold lower than that of the compound before.

The compound `Cn1c(=O)c(C(=O)NCC(=O)O)c(O)c2cnc(-c3ccc(F)cc3)nc21` [Example 27, 2-(2-(4-fluorophenyl)-5-hydroxy-8-methyl-7-oxo-7,8-dihydropyrido[2,3-d]pyrimidine-6-carboxamido)acetic acid] displayed an IC50 of 2.3 nM.

In turn, `Cn1c(=O)c(C(=O)NCC(=O)O)c(O)c2cnc(-c3ccnc4ccccc34)nc21` [Example 45, 2-(5-hydroxy-8-methyl-7-oxo-2-(quinolin-4-yl)-7,8-dihydropyrido[2,3-d]pyrimidine-6-carboxamido)acetic acid] came in with an IC50 of 2 nM. This IC50 and that of the compound before are within 1.5-fold of each other.

For the compound `CC1CCCCN1c1ncc2c(O)c(C(=O)NCC(=O)O)c(=O)n(C)c2n1` (stereo not drawn) [Example 16, 2-(5-hydroxy-8-methyl-2-(2-methylpiperidin-1-yl)-7-oxo-7,8-dihydropyrido[2,3-d]pyrimidine-6-carboxamido)acetic acid], the IC50 is 52.5 nM.

`Cn1c(=O)c(C(=O)NCC(=O)O)c(O)c2cnc(-c3cc4ccccc4[nH]3)nc21` [Example 42, 2-(5-hydroxy-2-(1H-indol-2-yl)-8-methyl-7-oxo-7,8-dihydropyrido[2,3-d]pyrimidine-6-carboxamido)acetic acid] registered an IC50 of 3.1 nM.

Compound `Cn1c(=O)c(C(=O)NCC(=O)O)c(O)c2cnc(-c3cccc(Cl)c3)nc21` [Example 43, 2-(2-(3-chlorophenyl)-5-hydroxy-8-methyl-7-oxo-7,8-dihydropyrido[2,3-d]pyrimidine-6-carboxamido)acetic acid] returned an IC50 of 7.9 nM.

In turn, `Cn1c(=O)c(C(=O)NCC(=O)O)c(O)c2cnc(-c3ccc(C#N)cc3)nc21` [Example 52, 2-(2-(4-cyanophenyl)-5-hydroxy-8-methyl-7-oxo-7,8-dihydropyrido[2,3-d]pyrimidine-6-carboxamido)acetic acid] showed an IC50 of 4.1 nM.

With `Cn1c(=O)c(C(=O)NCC(=O)O)c(O)c2cnc(-c3cccc(F)c3)nc21` [Example 22, 2-(2-(3-fluorophenyl)-5-hydroxy-8-methyl-7-oxo-7,8-dihydropyrido[2,3-d]pyrimidine-6-carboxamido)acetic acid], the IC50 stood at 2.9 nM.

In turn, `Cn1c(=O)c(C(=O)NCC(=O)O)c(O)c2cnc(-c3cccc(N4CCOCC4)c3)nc21` [Example 53, 2-(5-hydroxy-8-methyl-2-(3-morpholinophenyl)-7-oxo-7,8-dihydropyrido[2,3-d]pyrimidine-6-carboxamido)acetic acid] showed an IC50 of 5 nM.

`COc1cccc(-c2ncc3c(O)c(C(=O)NCC(=O)O)c(=O)n(C)c3n2)c1` [Example 34, 2-(5-hydroxy-2-(3-methoxyphenyl)-8-methyl-7-oxo-7,8-dihydropyrido[2,3-d]pyrimidine-6-carboxamido)acetic acid] yielded an IC50 of 10 nM.

For the compound `Cn1c(=O)c(C(=O)NCC(=O)O)c(O)c2cnc(-c3ccc4ccccc4c3)nc21` [Example 41, 2-(5-hydroxy-8-methyl-2-(naphthalen-2-yl)-7-oxo-7,8-dihydropyrido[2,3-d]pyrimidine-6-carboxamido)acetic acid], the midpoint of inhibition, the IC50, lay at 9.4 nM. The IC50 values of the last two compounds are within 1.5-fold of each other.

Compound `Cn1c(=O)c(C(=O)NCC(=O)O)c(O)c2cc(C3CCCC3)nnc21` [Example 5, 2-(3-cyclopentyl-5-hydroxy-8-methyl-7-oxo-7,8-dihydropyrido[2,3-c]pyridazine-6-carboxamido)acetic acid] registered an IC50 of 8.8 nM. This IC50 and that of the compound before are within 1.5-fold of each other.

The compound `Cc1cccc(-c2ncc3c(O)c(C(=O)NCC(=O)O)c(=O)n(C)c3n2)c1` [Example 37, 2-(5-hydroxy-8-methyl-7-oxo-2-m-tolyl-7,8-dihydropyrido[2,3-d]pyrimidine-6-carboxamido)acetic acid] showed a 50% inhibitory concentration (IC50) of 8.8 nM.

`Cn1c(=O)c(C(=O)NCC(=O)O)c(O)c2cnc(-c3ccsc3)nc21` [Example 54, 2-(5-hydroxy-8-methyl-7-oxo-2-(thiophen-3-yl)-7,8-dihydropyrido[2,3-d]pyrimidine-6-carboxamido)acetic acid] returned an IC50 of 4 nM.

`Cn1c(=O)c(C(=O)NCC(=O)O)c(O)c2cnc(C(F)(F)F)nc21` [Example 14, 2-(5-hydroxy-8-methyl-7-oxo-2-(trifluoromethyl)-7,8-dihydropyrido[2,3-d]pyrimidine-6-carboxamido)acetic acid] returned an IC50 of 6.9 nM.

`COc1ccccc1-c1ncc2c(O)c(C(=O)NCC(=O)O)c(=O)n(C)c2n1` [Example 31, 2-(5-hydroxy-2-(2-methoxyphenyl)-8-methyl-7-oxo-7,8-dihydropyrido[2,3-d]pyrimidine-6-carboxamido)acetic acid] registered an IC50 of 2.4 nM.

Consider `Cc1ccc(-c2ncc3c(O)c(C(=O)NCC(=O)O)c(=O)n(C)c3n2)cc1` [Example 47, 2-(5-hydroxy-8-methyl-7-oxo-2-p-tolyl-7,8-dihydropyrido[2,3-d]pyrimidine-6-carboxamido)acetic acid], for which inhibition was half-maximal at 6.7 nM (IC50).
